In PMC10672842, “Anti-Trypanosoma cruzi Activity, Mutagenicity, Hepatocytotoxicity and Nitroreductase Enzyme Evaluation of 3-Nitrotriazole, 2-Nitroimidazole and Triazole Derivatives” (Molecules, 2023):
Like-named read-outs stand apart in the source and are kept apart here.

Tests used:
[1] = test system: S. typhimurium TA98; assay: Salmonella reverse mutation assay (Ames test, preincubation), TA98
Procedure: (§1) The compounds were tested in a reverse mutation assay preincubation protocol in the absence and presence of metabolic activation following standard protocols previously proposed by Maron and Ames. The histidine-dependent (his^−) strains TA98 and TA100 of Salmonella typhimurium were inoculated in 10 mL of Oxoid nutrient broth No. 2 containing 25 µg/mL ampicillin and incubated overnight (15–18 h) at 37 ± 1 °C on an orbital shaker (CT-712, Cientec, Belo Horizonte, MG, Brazil) at 150 rpm, obtaining a concentration of 1–2 × 10^9 cells/mL, confirmed by titration in nutrient agar plates. Briefly, 100 µL of stationary growth cultures of each strain were preincubated for 20 min on an orbital shaker (150 rpm) at 37 ± 1 °C, with 500 µL of 0.2 M phosphate buffer pH 7.4, or 500 µL of S9 mix 4% (Molecular Toxicology, Baltimore, MD, USA), and 100 µL of compound dilutions (0–5000 µM) or controls. DMSO 1% was used as a negative control. […] After incubation, 2 mL of top agar (0.7% agar, 0.5% NaCl, 0.05 mM L-histidine and D-biotin) at 45 ± 3 °C was added and gently mixed. The final mixture was poured on glucose minimal agar plates (1.5% agar, 10 g/L MgSO4·7H2O; 100 g/L of C6H8O7·H2O; 500 g/L K2HPO4; 175 g/L Na(NH4)HPO4·4H2O, 2% glucose) and incubated for 72 h at 37 ± 1 °C. The results were expressed as the mean of revertant colonies (His^+) per plate, standard deviation (SD) and mutagenicity induction fold (IF), calculated as the ratio between the number of colonies in the test group and the number of colonies in the negative control group. Mutagenic potency was calculated as the slope of the linear portion of the concentration–response function and expressed as revertants/µM. All assays were performed in triplicate and repeated at least two times. Statistical analyses were carried out in GraphPad Prism software (version 5.00, GraphPad Software, Boston, MA, USA).

[2] = test system: T. cruzi (Tulahuen strain); assay: In vitro anti-T. cruzi evaluation in an intracellular model (trypomastigote and amastigote forms, L929 host cells, β-galactosidase readout); type: cell-based, Trypanosoma cruzi; details: for IC50: Trypanosoma cruzi, TULAHUEN, L929, 96 h, Tulahuen strain, intracellular trypomastigote and amastigote forms in L929 fibroblasts, 96 h, read-out: IC50 T. cruzi; for SI: selectivity index, L929 cells vs T. cruzi
Procedure: Derivatives 5–10 were evaluated in vitro against T. cruzi in an intracellular model on the trypomastigote and amastigote forms of the parasite of the Tulahuen strain [20]. This model is interesting because it mimics the life cycle of the parasite, as both clinically relevant forms are present in the environment. The mammalian host cells used were fibroblasts from L929 mice.
This assay was performed as previously described by Buckner et al. (1996) using T. cruzi (Tulahuen strain), which expresses the β-galactosidase gene of Escherichia coli. Infectious trypomastigote forms were obtained by culturing fibroblast monolayers of L929 mice in RPMI-1640 medium (pH 7.2–7.4) without phenol red (Gibco BRL), containing 10% fetal bovine serum and 2 mM glutamine. For the bioassay, 4000 L929 cells in 80 µL of supplemented medium were added to each well of a 96-well microtiter plate. After overnight incubation, 40,000 trypomastigotes in 20 µL were added to the cells and incubated for 2 h. […] The medium was then replaced with compound solutions at 1.0 µg/mL in fresh medium (200 µL), and the plate was incubated for 96 h at 37 °C. After this period, 50 µL of chlorophenol D-galactopyranoside red (500 µM) in 0.5% Nonidet P40 was added to each well, and the plate was incubated for 18 h at 37 °C. After this, the absorbance was measured at 570 nm. Controls with uninfected cells and infected cells treated with benznidazole were performed in parallel. The results are expressed as the percentage of T. cruzi growth inhibition in cells tested with compost compared to infected and untreated cells. The tests were performed in triplicate.

[3] = test system: S. typhimurium TA100; details: for Mutagenicity in the Ames test (verdict): TA100, absence or presence of metabolic activation
Procedure: as §1

## O=[N+]([O-])c1ncn(CC(O)c2ccc(F)cc2F)n1 (stereo not drawn) [Compound 8, 1-(2,4-Difluorophenyl)-2-(3-nitro-1H-1,2,4-triazol-1-yl)ethanol]
[1]; TA98, +S9, 0.5 µM
  IF (induction factor): 1.0
  revertant His+ colonies, mean ± SD: 24 ± 2
[1]; TA98, +S9, 5 µM
  IF (induction factor): 1.0
  revertant His+ colonies, mean ± SD: 24 ± 7
[1]; TA98, +S9, 50 µM
  IF (induction factor): 1.0
  revertant His+ colonies, mean ± SD: 23 ± 3
[1]; TA98, +S9, 500 µM
  IF (induction factor): 1.0
  revertant His+ colonies, mean ± SD: 24 ± 5
[1]; TA98, +S9, 5000 µM
  IF (induction factor): 1.1
  revertant His+ colonies, mean ± SD: 26 ± 1
[1]; TA98, absence or presence of metabolic activation
  Mutagenicity in the Ames test (verdict): not mutagenic
[1]; TA98, −S9, 0.5 µM
  IF (induction factor): 0.9
  revertant His+ colonies, mean ± SD: 23 ± 4
[1]; TA98, −S9, 5 µM
  IF (induction factor): 0.9
  revertant His+ colonies, mean ± SD: 23 ± 1
[1]; TA98, −S9, 50 µM
  IF (induction factor): 1.1
  revertant His+ colonies, mean ± SD: 30 ± 3
[1]; TA98, −S9, 500 µM
  revertant His+ colonies, mean ± SD: Cytotoxic
[2]
  IC50: 0.39 ± 0.01 µM
  SI: 3077
[2]; ratio of IC50 T. cruzi to 2-nitroimidazole 9
  times more potent against T. cruzi than 9: approximately 8
[2]; ratio of IC50 T. cruzi to BZN
  fold more potent against T. cruzi than BZN: ~4
[2]; ratio of IC50 T. cruzi to carbonyl counterpart 5
  times more potent against T. cruzi than 5: more than 4
[2]; ratio of IC50 T. cruzi to triazole 10
  times more potent against T. cruzi than 10: more than 300
[2]; ratio of selectivity index to BZN
  fold more selective than BZN: 2
[3]; TA100, +S9, 0.5 µM
  IF (induction factor): 1.2
  revertant His+ colonies, mean ± SD: 129 ± 21
[3]; TA100, +S9, 5 µM
  IF (induction factor): 1.2
  revertant His+ colonies, mean ± SD: 128 ± 6
[3]; TA100, +S9, 50 µM
  IF (induction factor): 1.4
  revertant His+ colonies, mean ± SD: 150 ± 14
[3]; TA100, +S9, 500 µM
  IF (induction factor): 1.4
  revertant His+ colonies, mean ± SD: 145 ± 8
[3]; TA100, +S9, 5000 µM
  IF (induction factor): 1.7
  revertant His+ colonies, mean ± SD: 183 ± 9
[3]
  Mutagenicity in the Ames test (verdict): not mutagenic
[3]; TA100, −S9, 0.5 µM
  IF (induction factor): 1.1
  revertant His+ colonies, mean ± SD: 77 ± 5
[3]; TA100, −S9, 5 µM
  IF (induction factor): 1.1
  revertant His+ colonies, mean ± SD: 77 ± 15
[3]; TA100, −S9, 50 µM
  IF (induction factor): 1.1
  revertant His+ colonies, mean ± SD: 77 ± 13
[3]; TA100, −S9, 500 µM
  IF (induction factor): 1.3
  revertant His+ colonies, mean ± SD: 91 ± 8
[3]; TA100, −S9, 5000 µM
  IF (induction factor): 1.5
  revertant His+ colonies, mean ± SD: 108 ± 10

## O=[N+]([O-])c1nccn1CC(O)c1ccc(F)cc1F (stereo not drawn) [Compound 9, 1-(2,4-Difluorophenyl)-2-(2-nitro-1H-imidazol-1-yl)ethanol]
[1]; TA98, +S9, 0.5 µM
  IF (induction factor): 0.8
  revertant His+ colonies, mean ± SD: 18 ± 2
[1]; TA98, +S9, 5 µM
  IF (induction factor): 0.8
  revertant His+ colonies, mean ± SD: 18 ± 2
[1]; TA98, +S9, 50 µM
  IF (induction factor): 0.9
  revertant His+ colonies, mean ± SD: 22 ± 8
[1]; TA98, +S9, 500 µM
  IF (induction factor): 1.0
  revertant His+ colonies, mean ± SD: 24 ± 5
[1]; TA98, +S9, 5000 µM
  IF (induction factor): 1.2
  revertant His+ colonies, mean ± SD: 28 ± 2
[1]; TA98, −S9, 0.5 µM
  IF (induction factor): 0.7
  revertant His+ colonies, mean ± SD: 18 ± 6
[1]; TA98, −S9, 5 µM
  IF (induction factor): 0.7
  revertant His+ colonies, mean ± SD: 18 ± 2
[1]; TA98, −S9, 50 µM
  IF (induction factor): 1.1
  revertant His+ colonies, mean ± SD: 29 ± 3
[1]; TA98, −S9, 500 µM
  IF (induction factor): 1.8
  revertant His+ colonies, mean ± SD: 49 ± 5
[1]; TA98, −S9, 5000 µM
  IF (induction factor): 6.5
  revertant His+ colonies, mean ± SD: 173 ± 21
[2]
  IC50: 3.05 ± 0.07 µM
  SI: >131
[2]; ratio of IC50 T. cruzi to 2-nitroimidazole ketone 6
  times more potent against T. cruzi than 6: approximately 30
[3]; TA100, +S9
  Mutagenic potency (slope of the linear portion of the concentration–response function): 292.1 revertants/µM
[3]; TA100, +S9, 0.5 µM
  IF (induction factor): 1.5
  revertant His+ colonies, mean ± SD: 159 ± 7
[3]; TA100, +S9, 5 µM
  IF (induction factor): 2.1
  revertant His+ colonies, mean ± SD: 218 ± 14
[3]; TA100, +S9, 50 µM
  IF (induction factor): 2.2
  revertant His+ colonies, mean ± SD: 233 ± 48
[3]; TA100, +S9, 500 µM
  IF (induction factor): 9.7
  revertant His+ colonies, mean ± SD: 1025 ± 16
[3]; TA100, +S9, 5000 µM
  IF (induction factor): 11.5
  revertant His+ colonies, mean ± SD: 1216 ± 113
[3]
  Mutagenicity in the Ames test (verdict): mutagenic
[3]; TA100, −S9
  Mutagenic potency (slope of the linear portion of the concentration–response function): 250.3 revertants/µM
[3]; TA100, −S9, 0.5 µM
  IF (induction factor): 1.0
  revertant His+ colonies, mean ± SD: 73 ± 5
[3]; TA100, −S9, 5 µM
  IF (induction factor): 1.2
  revertant His+ colonies, mean ± SD: 88 ± 7
[3]; TA100, −S9, 50 µM
  IF (induction factor): 2.3
  revertant His+ colonies, mean ± SD: 164 ± 16
[3]; TA100, −S9, 500 µM
  IF (induction factor): 4.9
  revertant His+ colonies, mean ± SD: 347 ± 24
[3]; TA100, −S9, 5000 µM
  IF (induction factor): 16.7
  revertant His+ colonies, mean ± SD: 1195 ± 160
[3]; TA100, −S9 and +S9
  Mutagen classification according to Claxton et al.: highly inductive mutagen
